Source: patent US20220347175A1, “PYRIDAZINONE DERIVATIVE” (Sumitomo Dainippon Pharma Co., Ltd., priority 2018, published 2022)

Legend:
human Nav1.1 = molecular target: T1, human Nav1.1 (Homo sapiens, UniProt P35498); experiment: Amplification of Nav1.1-derived voltage-dependent sodium current (Nav1.1 current), cell line stably expressing human Nav1.1, automated patch clamp; assay type: cell-based
T1 construct: host or cells: HEK293
Method in brief: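 Automated whole-cell voltage-clamp recordings used HEK293 cells stably expressing human Nav1.1, keeping only cells with >500 pA current, with currents evoked by ramp voltage. Compounds were applied in extracellular fluid with 1% DMSO, and amplification (%) was computed from peak current or AUC after versus before addition.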

human Nav1.5 = molecular target: T2, human Nav1.5 (Homo sapiens, UniProt Q14524); experiment: Amplification of Nav1.5-derived voltage-dependent sodium current (Nav1.5 current), cell line stably expressing human Nav1.5, automated patch clamp; assay type: cell-based
T2 construct: expressed in transfected cells; host or cells: CHO-K1 (T-REx System, ThermoFisher Scientific)
T2 sequence (Q14524 1-2015 isoform Q14524-2): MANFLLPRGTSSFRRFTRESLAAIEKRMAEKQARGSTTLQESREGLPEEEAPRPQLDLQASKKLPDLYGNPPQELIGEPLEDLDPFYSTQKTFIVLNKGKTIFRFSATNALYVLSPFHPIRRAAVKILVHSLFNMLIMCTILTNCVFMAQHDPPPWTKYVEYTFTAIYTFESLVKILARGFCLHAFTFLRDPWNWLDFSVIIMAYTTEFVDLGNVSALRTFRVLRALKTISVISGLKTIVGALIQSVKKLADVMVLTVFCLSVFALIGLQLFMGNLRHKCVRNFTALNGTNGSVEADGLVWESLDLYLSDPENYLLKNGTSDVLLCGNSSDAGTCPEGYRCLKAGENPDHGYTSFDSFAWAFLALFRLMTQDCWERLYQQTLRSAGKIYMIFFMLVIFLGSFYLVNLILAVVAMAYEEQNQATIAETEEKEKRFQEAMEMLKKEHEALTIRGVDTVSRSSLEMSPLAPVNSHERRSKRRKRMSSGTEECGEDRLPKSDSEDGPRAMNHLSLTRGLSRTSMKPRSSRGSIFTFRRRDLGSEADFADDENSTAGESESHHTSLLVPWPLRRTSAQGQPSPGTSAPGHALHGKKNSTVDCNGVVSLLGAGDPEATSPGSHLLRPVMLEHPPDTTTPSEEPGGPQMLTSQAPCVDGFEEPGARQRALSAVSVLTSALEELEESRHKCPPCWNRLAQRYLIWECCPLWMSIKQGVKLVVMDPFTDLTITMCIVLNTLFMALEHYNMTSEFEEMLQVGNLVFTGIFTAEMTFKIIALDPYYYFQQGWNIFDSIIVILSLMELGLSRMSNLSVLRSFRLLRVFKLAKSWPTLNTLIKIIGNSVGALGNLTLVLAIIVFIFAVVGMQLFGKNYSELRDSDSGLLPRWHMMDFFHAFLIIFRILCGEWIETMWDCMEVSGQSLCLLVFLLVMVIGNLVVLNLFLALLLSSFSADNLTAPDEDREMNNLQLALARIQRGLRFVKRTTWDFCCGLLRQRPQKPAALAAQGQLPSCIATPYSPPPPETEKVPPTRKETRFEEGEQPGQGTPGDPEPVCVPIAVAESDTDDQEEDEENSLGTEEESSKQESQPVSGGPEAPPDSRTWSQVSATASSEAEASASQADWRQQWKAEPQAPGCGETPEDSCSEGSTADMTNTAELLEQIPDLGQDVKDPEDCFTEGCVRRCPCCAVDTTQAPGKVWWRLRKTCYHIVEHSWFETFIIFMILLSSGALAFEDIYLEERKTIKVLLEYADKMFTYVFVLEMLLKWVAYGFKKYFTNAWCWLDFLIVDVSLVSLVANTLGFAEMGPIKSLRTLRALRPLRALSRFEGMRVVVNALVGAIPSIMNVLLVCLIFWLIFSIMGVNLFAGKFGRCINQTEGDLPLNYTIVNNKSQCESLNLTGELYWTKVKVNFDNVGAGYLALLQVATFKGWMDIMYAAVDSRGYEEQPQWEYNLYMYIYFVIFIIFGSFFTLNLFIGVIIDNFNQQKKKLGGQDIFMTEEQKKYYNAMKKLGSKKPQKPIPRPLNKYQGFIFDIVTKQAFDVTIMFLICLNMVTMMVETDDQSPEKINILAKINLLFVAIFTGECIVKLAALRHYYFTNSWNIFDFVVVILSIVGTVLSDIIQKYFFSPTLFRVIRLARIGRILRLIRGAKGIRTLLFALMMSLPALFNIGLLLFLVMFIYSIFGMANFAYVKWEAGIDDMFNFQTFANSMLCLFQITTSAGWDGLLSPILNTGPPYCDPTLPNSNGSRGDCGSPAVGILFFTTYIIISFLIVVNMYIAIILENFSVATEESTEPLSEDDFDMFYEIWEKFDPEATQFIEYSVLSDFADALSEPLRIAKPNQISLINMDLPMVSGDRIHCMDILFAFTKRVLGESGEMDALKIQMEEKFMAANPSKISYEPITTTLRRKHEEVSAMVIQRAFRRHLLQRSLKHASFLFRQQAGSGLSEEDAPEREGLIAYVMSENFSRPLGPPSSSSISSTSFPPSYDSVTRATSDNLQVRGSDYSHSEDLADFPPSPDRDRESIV
Description: Test 2: Evaluation of the Amplification in Nav1.5-Derived Voltage-Dependent Sodium Current (Nav1.5 Current) by Using a Cell Line Stably Expressing Human Nav1.5
A CHO-K1 cell line (Chinese hamster ovary) stably expressing human Nav1.5 (Gene Bank Accession No: P000326.2) was obtained by using purchased T-Rex System (ThermoFisher Scientific, USA), and used for the present test. The effect of test compounds on the amplification of Nav1.5 current was evaluated by using a cell line stably expressing human Nav1.5 and HTS automated patch clamp system, similarly in the method using Nav1.1. In other words, test compounds were added in an extracellular fluid which contained 1% DMSO and 500 nmol/L Tetrodotoxin (TTX), and evaluated as a change of the peak value of Nav1.5 current and the area under the curve (AUC). The induction and the measurement of Nav1.5 current, the pharmacologic effect on Nav1.5 current, and a method for pharmacological evaluation were carried out by the same method as in Nav1.1.

[1] = 10 μmol/L compound, change of the area under the curve of Nav1.1 current (Test Result 1)
[2] = 10 μmol/L compound, change of the area under the curve of Nav1.5 current (Test Result 1)
[3] = 10 μmol/L compound, change of the area under the curve of Nav1.1 current (Test Result 1), read-out: Nav1.1 current amplification rate (%)
[4] = 10 μmol/L compound, change of the area under the curve of Nav1.5 current (Test Result 1), read-out: Nav1.5 current amplification rate (%)
[5] = compound 1 μmol/L, HEK293 stably expressing human Nav1.1
[6] = compound 1 μmol/L, CHO-K1 stably expressing human Nav1.5
[7] = compound 3 μmol/L, HEK293 stably expressing human Nav1.1
[8] = compound 3 μmol/L, CHO-K1 stably expressing human Nav1.5
[9] = compound 3 μmol/L, HEK293 stably expressing human Nav1.1, read-out: Nav1.1 current amplification rate (%)
[10] = compound 3 μmol/L, CHO-K1 stably expressing human Nav1.5, read-out: Nav1.5 current amplification rate (%)

| Compound | Nav1.1 current amplification rate (%) (human Nav1.1; [1]) | activation at 10 µM (human Nav1.1; [3]) [%] | Nav1.5 current amplification rate (%) (human Nav1.5; [2]) | activation at 10 µM (human Nav1.5; [4]) [%] | also measured |
| --- | --- | --- | --- | --- | --- |
| CC1(C)CC=C(c2ccc(=O)n(CC(=O)Nc3ccn4ncnc4c3)n2)CC1 [Example 429, 2-[3-(4,4-dimethylcyclohex-1-en-1-yl)-6-oxopyridazin-1(6H)-yl]-N-([1,2,4]triazolo[1,5-a]pyridin-7-yl)acetamide] |  |  |  |  | activation at 1 µM (human Nav1.1; compound 1 μmol/L, HEK293 stably expressing human Nav1.1, read-out: Nav1.1 current amplification rate (%)): 101%; activation at 1 µM (human Nav1.5; compound 1 μmol/L, CHO-K1 stably expressing human Nav1.5, read-out: Nav1.5 current amplification rate (%)): 28% |
| COc1cc(=O)n(CC(=O)N2CCc3c(N4CCOCC4)cccc32)nc1C1=CCC(C(F)(F)F)CC1 (racemic) [Example 476] | 343 |  | 13 |  |  |
| CC1(C)CC=C(c2ccc(=O)n(CC(=O)Nc3ccn4ccnc4c3)n2)CC1 [Example 425] | 283 |  | 60 |  |  |
| CC1CC=C(c2ccc(=O)n(CC(=O)Nc3ccc4nccn4n3)n2)CC1 (racemic) [Example 346] |  |  |  |  | Nav1.1 current amplification rate (%) (human Nav1.1; [5]): 96%; Nav1.5 current amplification rate (%) (human Nav1.5; [6]): 27% |
| COc1ncc(-c2cccc3c2CCN3C(=O)Cn2nc(C3=CCC(C)CC3)ccc2=O)cn1 (racemic) [Example 249] |  |  |  |  | Nav1.1 current amplification rate (%) (human Nav1.1; [7]): 584%; Nav1.5 current amplification rate (%) (human Nav1.5; [8]): 106% |
| Cc1cc(=O)n(CC(=O)Nc2ccn3ccnc3c2)nc1C1=CCC(C)(C)CC1 [Example 461] | 337 |  | 50 |  |  |
| Cc1nccn1-c1ccc(NC(=O)Cn2nc(C3=CCC(C)CC3)ccc2=O)cc1 (racemic) [Example 361] |  |  |  |  | Nav1.1 current amplification rate (%) (human Nav1.1; [5]): 101%; Nav1.5 current amplification rate (%) (human Nav1.5; [6]): 112% |
| COc1cc(C2=CCC(C)(C)CC2)nn(CC(=O)N2CCc3c(N4CCOCC4)cccc32)c1=O [Example 468] |  |  |  |  | Nav1.1 current amplification rate (%) (human Nav1.1; [5]): 275%; Nav1.5 current amplification rate (%) (human Nav1.5; [6]): 75% |
| COCOc1cccc2c1CCN2C(=O)Cn1nc(C2=CCC(C)(C)CC2)ccc1=O [Example 435] | 262 |  | 14 |  |  |
| CC1CC=C(c2ccc(=O)n(CC(=O)Nc3ccc4oc(CN(C)C)nc4c3)n2)CC1 (racemic) [Example 324] |  |  |  |  | Nav1.1 current amplification rate (%) (human Nav1.1; [7]): 50%; Nav1.5 current amplification rate (%) (human Nav1.5; [8]): 5% |
| CC1CC=C(c2ccc(=O)n(CC(=O)N3CCc4c(C5CN(CCO)C5)cccc43)n2)CC1 (racemic) [Example 303] |  |  |  |  | Nav1.1 current amplification rate (%) (human Nav1.1; [7]): 67%; Nav1.5 current amplification rate (%) (human Nav1.5; [8]): 11% |
| Cc1cc(NC(=O)Cn2nc(N3CCC4(CCCC4)C3)cc(C)c2=O)cc(C)n1 [Example 198] |  | 36 |  | -9 |  |
| CC1CC=C(c2ccc(=O)n(CC(=O)Nc3ccc4oc(CN5CCC5)nc4c3)n2)CC1 (racemic) [Example 333] |  |  |  |  | Nav1.1 current amplification rate (%) (human Nav1.1; [7]): 25%; Nav1.5 current amplification rate (%) (human Nav1.5; [8]): 13% |
| O=C(Cn1nc(N2CCC3(CCC3)C2)ccc1=O)N1CCN(c2ccccc2)CC1 [Example 188] |  | 30 |  | -2 |  |
| CC1CC=C(c2ccc(=O)n(CC(=O)N3CC(C)N(c4cccnc4)C(C)C3)n2)CC1 (centres unmarked) [Example 416] | 383 |  | 86 |  |  |
| CN1CCN(c2cccc3c2CCN3C(=O)Cn2nc(N3CCC(C)(C)CC3)ccc2=O)CC1 [Example 223] |  | 46 |  | 0 |  |
| O=C(Cn1nc(C2=CCC(F)(F)CC2)ccc1=O)Nc1ccn2ccnc2c1 [Example 464] | 18 |  | 1 |  |  |
| COc1nc2cc(NC(=O)Cn3nc(C4=CCC(C)(C)CC4)c(OC)cc3=O)cc(F)c2o1 [Example 494] |  |  |  |  | activation at 3 µM (human Nav1.1; [9]): 255%; activation at 3 µM (human Nav1.5; [10]): 26% |
| CC1CC=C(c2ccc(=O)n(CC(=O)Nc3ccn4ncnc4c3)n2)CC1 (racemic) [Example 330] |  |  |  |  | Nav1.1 current amplification rate (%) (human Nav1.1; [5]): 191%; Nav1.5 current amplification rate (%) (human Nav1.5; [6]): 47% |
| CC1CC=C(c2ccc(=O)n(CC(=O)N3CCc4c(C5=CCNC5)cccc43)n2)CC1 (racemic) [Example 265] |  |  |  |  | Nav1.1 current amplification rate (%) (human Nav1.1; [7]): 110%; Nav1.5 current amplification rate (%) (human Nav1.5; [8]): 19% |
| CC1CC=C(c2ccc(=O)n(CC(=O)N3CCc4c3ccnc4Cl)n2)CC1 (racemic) [Example 247] | 53 |  | 43 |  |  |
| Cc1cncc(N2CCN(C(=O)Cn3nc(C4=CCC(C)(C)CC4)ccc3=O)CC2)c1 [Example 442] | 414 |  | 27 |  |  |
| CC1CC=C(c2ccc(=O)n(CC(=O)N3CCc4c(C5CN(C6CCOC6)C5)cccc43)n2)CC1 (racemic) [Example 305] |  |  |  |  | Nav1.1 current amplification rate (%) (human Nav1.1; [7]): 314%; Nav1.5 current amplification rate (%) (human Nav1.5; [8]): 117% |
| CC1CC=C(c2ccc(=O)n(CC(=O)N3CCc4c(C5CN(C(=O)CO)C5)cccc43)n2)CC1 (racemic) [Example 321] |  |  |  |  | Nav1.1 current amplification rate (%) (human Nav1.1; [7]): 478%; Nav1.5 current amplification rate (%) (human Nav1.5; [8]): 330% |
| Cc1cc(C2=CCC(C)(C)CC2)nn(CC(=O)N2CCN(c3cccnc3)CC2)c1=O [Example 513] |  | 262 |  | 4 |  |
| CC1(C)CCN(c2ccc(=O)n(CC(=O)N3CCc4c(N5CCOCC5)cccc43)n2)CC1 [Example 221] |  | 281 |  | 15 |  |
| CC1CC=C(c2ccc(=O)n(CC(=O)N3CCc4c(-c5cn[nH]c5)cccc43)n2)CC1 (racemic) [Example 254] |  |  |  |  | Nav1.1 current amplification rate (%) (human Nav1.1; [7]): 309%; Nav1.5 current amplification rate (%) (human Nav1.5; [8]): 74% |
| COc1ccc(N2CCN(C(=O)Cn3nc(C4=CCC(C(F)(F)F)CC4)ccc3=O)CC2)cn1 (centres unmarked) [Example 511] |  |  |  |  | activation at 3 µM (human Nav1.1; [9]): 37%; activation at 3 µM (human Nav1.5; [10]): 6% |

Further lines, with some results ahead:

| Nav1.1 current amplification rate (%) (human Nav1.1; [1]) | activation at 10 µM (human Nav1.1; [3]) [%] | Compound | Nav1.5 current amplification rate (%) (human Nav1.5; [2]) | activation at 10 µM (human Nav1.5; [4]) [%] | also measured |
| --- | --- | --- | --- | --- | --- |
|  | 173 | O=C(Cn1nc(N2CCC3(CCCC3)C2)ccc1=O)Nc1ccc2ocnc2c1 [Example 122] |  | 18 |  |
|  | 229 | O=C(Cn1nc(N2CCC3(CCC3)CC2)ccc1=O)Nc1ccc2scnc2c1 [Example 127] |  | 58 |  |
| 93 |  | CC1CCN(c2ccc(=O)n(CC(=O)Nc3ccc4oc(N(C)C)nc4c3)n2)CC1 [Example 91] | 9 |  |  |
|  | 112 | CC1CCN(c2ccc(=O)n(CC(=O)Nc3ccn4c(Br)cnc4c3)n2)CC1 [Example 173] |  | 47 |  |
| 276 |  | CC1CC=C(c2ccc(=O)n(CC(=O)Nc3ccc4oc(C(F)F)nc4c3)n2)CC1 (racemic) [Example 243] | 19 |  |  |
|  | 183 | Cc1nc2cc(NC(=O)Cn3nc(N4CCC(C)CC4)ccc3=O)cc(Cl)c2o1 [Example 215] |  | 18 |  |
| 260 |  | CC1CC=C(c2ccc(=O)n(CC(=O)Nc3cc(F)c4ocnc4c3)n2)CC1 (racemic) [Example 241] | 26 |  |  |
|  | 209 | COc1cc(=O)n(CC(=O)Nc2ccc3ocnc3c2)nc1N1CCC2(CCCC2)C1 [Example 195] |  | 29 |  |
| 73 |  | CC1CCN(c2ccc(=O)n(CC(=O)Nc3ccc4c(c3)NC(=O)C4)n2)CC1 [Example 86] | 3 |  |  |
| 137 |  | Cc1nc2cc(NC(=O)Cn3nc(N4CCC(C)CC4)ccc3=O)ccc2o1 [Example 69] | 0 |  |  |
|  | 200 | O=C(Cn1nc(N2CCC3(CCC3)C2)c(N2CCCC2)cc1=O)Nc1ccc2ocnc2c1 [Example 208] |  | 18 |  |
|  | 155 | O=C(Cn1nc(N2CCC3(CCCC3)C2)ccc1=O)Nc1ccn2nccc2c1 [Example 169] |  | 43 |  |
| 180 |  | CC1CCN(c2ccc(=O)n(CC(=O)Nc3ccc(C(F)(F)F)nc3)n2)CC1 [Example 59] | 56 |  |  |
|  | 121 | CC1CCN(c2ccc(=O)n(CC(=O)Nc3cc(F)c4ocnc4c3)n2)CC1 [Example 216] |  | 3 |  |
|  | 252 | Cc1cc(=O)n(CC(=O)Nc2ccc3ocnc3c2)nc1N1CCC2(CCCC2)C1 [Example 194] |  | 33 |  |
|  | 103 | Cc1cc(N2CCC(C)CC2)nn(CC(=O)Nc2ccc3ocnc3c2)c1=O [Example 200] |  | 5 |  |
|  | 197 | Cc1c(N2CCC(C)CC2)nn(CC(=O)Nc2ccc(C#N)nc2)c(=O)c1C [Example 100] |  | 56 |  |
| 221 |  | CC1CCN(c2ccc(=O)n(CC(=O)Nc3ccc4nsnc4c3)n2)CC1 [Example 95] | 18 |  |  |
